Test results from patent US12564193B2, “Isoxazoline-substituted benzamide derivative, and preparation method therefor and use thereof” (SHANDONG UNITED PESTICIDE INDUSTRY CO., LTD., priority 2020, dated 2026).
Like-named read-outs stand apart in the source and are kept apart here.

What was measured:
Type in all cases: in vivo
Cnaphalocrocis medinalis = experiment: Insecticidal activity, spray on pre-infested radish plants: Cnaphalocrocis medinalis; settings: 144 h, read-out: fatality rate on Cnaphalocrocis medinalis
Method in brief: (§1)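 Radish plants (12-15 days), 30-40 pests/plant via leaf cutting, soil sand-covered; spray compound in acetone/methanol/DMSO; dry 1 h; mesh cover; 25° C, 70% RH, 6 d; visual mortality; three replicates.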

Spodoptera litura = experiment: Insecticidal activity, spray on pre-infested radish plants: Spodoptera litura; settings: 144 h, read-out: fatality rate on Spodoptera litura
Method in brief: (§2)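 Mortality was assessed visually after 6 days at 25° C and 70% relative humidity, following spray application of the test compound to pre-infested 12-15 day old radish plants. Each test was run in triplicate.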

Chilo suppressalis = experiment: Insecticidal activity, spray on pre-infested radish plants: Chilo suppressalis; settings: for Fatality rate on Chilo suppressalis (%): Table 3; for pest or weed control at 0.1 ppm / pest or weed control at 1 ppm / pest or weed control at 10 ppm: Chilo suppressalis, 144 h, read-out: fatality rate on Chilo suppressalis
Method in brief: as §2

Plutella xylostella = experiment: Insecticidal activity, spray on pre-infested radish plants: Plutella xylostella; settings: for Fatality rate on Plutella xylostella (%): Table 3; for pest or weed control at 0.1 ppm / pest or weed control at 1 ppm / pest or weed control at 10 ppm: Plutella xylostella, 144 h, read-out: fatality rate on Plutella xylostella
Method in brief: as §2

Tetranychus cinnabarinus = experiment: Acaricidal activity, slide immersion of female adult mites: Tetranychus cinnabarinus; settings: read-out: fatality rate on Tetranychus cinnabarinus
Method in brief: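 Female adult mites stuck dorsally on tape on slides (4 rows of 10), dipped 5 s in test solution, excess blotted, incubated 24 h. Mites with immobile feet on brush touch scored dead; fatality rate calculated.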

Pieris rapae = experiment: Insecticidal activity, spray on pre-infested radish plants: Pieris rapae; settings: 144 h, read-out: fatality rate on Pieris rapae
Method in brief: as §1

Mythimna separata = experiment: Insecticidal activity, spray on pre-infested radish plants: Mythimna separata; settings: for Fatality rate on Mythimna separata (%): Table 3; for pest or weed control at 0.1 ppm / pest or weed control at 1 ppm / pest or weed control at 10 ppm: Mythimna separata, 144 h, read-out: fatality rate on Mythimna separata
Method in brief: as §2

[1] = system: Frankliniella occidentalis; experiment: Insecticidal activity, spray on pre-infested radish plants: Frankliniella occidentalis; settings: for Fatality rate on Frankliniella occidentalis (%): Table 3; for pest or weed control at 1 ppm / pest or weed control at 10 ppm / pest or weed control at 25 ppm: Frankliniella occidentalis, 144 h, read-out: fatality rate on Frankliniella occidentalis
Method in brief: as §2

Cc1cc(C2=NOC(c3cc(Cl)c(F)c(Cl)c3)(C(F)(F)F)C2)ccc1C(=O)NCc1ccc(Cl)nc1 (stereo not drawn) [Compound 1, N-((6-chloropyridin-3-yl)methyl)-4-(5-(3,5-dichloro-4-fluorophenyl)-5-(trifluoromethyl)-4,5-dihydroisoxazol-3-yl)-2-methylbenzamide]
pest or weed control at 0.1 ppm (Cnaphalocrocis medinalis): > 80%
pest or weed control at 1 ppm (Cnaphalocrocis medinalis): > 80%
pest or weed control at 10 ppm (Cnaphalocrocis medinalis): > 80%
pest or weed control at 0.1 ppm (Spodoptera litura): > 80%
pest or weed control at 1 ppm (Spodoptera litura): > 80%
pest or weed control at 10 ppm (Spodoptera litura): > 80%
Fatality rate on Chilo suppressalis (%) (Chilo suppressalis; 0.1 ppm): 90%
Fatality rate on Chilo suppressalis (%) (Chilo suppressalis; 1 ppm): 100%
Fatality rate on Chilo suppressalis (%) (Chilo suppressalis; 10 ppm): 100%
pest or weed control at 0.1 ppm (Chilo suppressalis): > 80%
pest or weed control at 1 ppm (Chilo suppressalis): > 80%
pest or weed control at 10 ppm (Chilo suppressalis): > 80%
Fatality rate on Plutella xylostella (%) (Plutella xylostella; 0.1 ppm): 100%
Fatality rate on Plutella xylostella (%) (Plutella xylostella; 1 ppm): 100%
Fatality rate on Plutella xylostella (%) (Plutella xylostella; 10 ppm): 100%
pest or weed control at 0.1 ppm (Plutella xylostella): > 80%
pest or weed control at 1 ppm (Plutella xylostella): > 80%
pest or weed control at 10 ppm (Plutella xylostella): > 80%
pest or weed control at 1 ppm (Tetranychus cinnabarinus; 24 h): > 80%
pest or weed control at 10 ppm (Tetranychus cinnabarinus; 24 h): > 80%
pest or weed control at 25 ppm (Tetranychus cinnabarinus; 24 h): > 80%
pest or weed control at 0.1 ppm (Pieris rapae): > 80%
pest or weed control at 1 ppm (Pieris rapae): > 80%
pest or weed control at 10 ppm (Pieris rapae): > 80%
Fatality rate on Mythimna separata (%) (Mythimna separata; 0.1 ppm): 95%
Fatality rate on Mythimna separata (%) (Mythimna separata; 1 ppm): 100%
Fatality rate on Mythimna separata (%) (Mythimna separata; 10 ppm): 100%
pest or weed control at 0.1 ppm (Mythimna separata): > 80%
pest or weed control at 1 ppm (Mythimna separata): > 80%
pest or weed control at 10 ppm (Mythimna separata): > 80%
Fatality rate on Frankliniella occidentalis (%) ([1]; 1 ppm): 95%
Fatality rate on Frankliniella occidentalis (%) ([1]; 10 ppm): 100%
Fatality rate on Frankliniella occidentalis (%) ([1]; 25 ppm): 100%
pest or weed control at 1 ppm [1]: > 80%
pest or weed control at 10 ppm [1]: > 80%
pest or weed control at 25 ppm [1]: > 80%

Cc1cc(C2=NOC(c3cc(F)c(F)c(F)c3)(C(F)(F)F)C2)ccc1C(=O)NCCc1ncc(C(F)(F)F)cc1Cl (stereo not drawn) [Compound 20]
pest or weed control at 0.1 ppm (Cnaphalocrocis medinalis; dose 0.1 ppm, spray, 6 days): > 80%
pest or weed control at 1 ppm (Cnaphalocrocis medinalis; dose 1 ppm, spray, 6 days): > 80%
pest or weed control at 10 ppm (Cnaphalocrocis medinalis; dose 10 ppm, spray, 6 days): > 80%
pest or weed control at 0.1 ppm (Spodoptera litura; dose 0.1 ppm, spray, 6 days): > 80%
pest or weed control at 1 ppm (Spodoptera litura; dose 1 ppm, spray, 6 days): > 80%
pest or weed control at 10 ppm (Spodoptera litura; dose 10 ppm, spray, 6 days): > 80%
pest or weed control at 0.1 ppm (Chilo suppressalis; dose 0.1 ppm, spray, 6 days): > 80%
pest or weed control at 1 ppm (Chilo suppressalis; dose 1 ppm, spray, 6 days): > 80%
pest or weed control at 10 ppm (Chilo suppressalis; dose 10 ppm, spray, 6 days): > 80%
pest or weed control at 0.1 ppm (Plutella xylostella; dose 0.1 ppm, spray, 6 days): > 80%
pest or weed control at 1 ppm (Plutella xylostella; dose 1 ppm, spray, 6 days): > 80%
pest or weed control at 10 ppm (Plutella xylostella; dose 10 ppm, spray, 6 days): > 80%
pest or weed control at 1 ppm (Tetranychus cinnabarinus; dose 1 ppm, immersion 5 seconds, checked after 24 hours): > 80%
pest or weed control at 10 ppm (Tetranychus cinnabarinus; dose 10 ppm, immersion 5 seconds, checked after 24 hours): > 80%
pest or weed control at 25 ppm (Tetranychus cinnabarinus; dose 25 ppm, immersion 5 seconds, checked after 24 hours): > 80%
pest or weed control at 0.1 ppm (Pieris rapae; dose 0.1 ppm, spray, 6 days): > 80%
pest or weed control at 1 ppm (Pieris rapae; dose 1 ppm, spray, 6 days): > 80%
pest or weed control at 10 ppm (Pieris rapae; dose 10 ppm, spray, 6 days): > 80%
pest or weed control at 0.1 ppm (Mythimna separata; dose 0.1 ppm, spray, 6 days): > 80%
pest or weed control at 1 ppm (Mythimna separata; dose 1 ppm, spray, 6 days): > 80%
pest or weed control at 10 ppm (Mythimna separata; dose 10 ppm, spray, 6 days): > 80%
pest or weed control at 1 ppm ([1]; dose 1 ppm, spray, 6 days): > 80%
pest or weed control at 10 ppm ([1]; dose 10 ppm, spray, 6 days): > 80%
pest or weed control at 25 ppm ([1]; dose 25 ppm, spray, 6 days): > 80%

Cc1cc(C2=NOC(c3cc(Cl)c(F)c(Cl)c3)(C(F)(F)F)C2)ccc1C(=O)NCc1ncc(C(F)(F)F)cc1Cl (stereo not drawn) [Compound 9, N-((3-chloro-5-(trifluoromethyl)pyridin-2-yl)methyl)-4-(5-(3,5-dichloro-4-fluorophenyl)-5-(trifluoromethyl)-4,5-dihydroisoxazol-3-yl)-2-methylbenzamide]
pest or weed control at 0.1 ppm (Cnaphalocrocis medinalis): > 80%
pest or weed control at 1 ppm (Cnaphalocrocis medinalis): > 80%
pest or weed control at 10 ppm (Cnaphalocrocis medinalis): > 80%
pest or weed control at 0.1 ppm (Spodoptera litura): > 80%
pest or weed control at 1 ppm (Spodoptera litura): > 80%
pest or weed control at 10 ppm (Spodoptera litura): > 80%
Fatality rate on Chilo suppressalis (%) (Chilo suppressalis; 0.1 ppm): 95%
Fatality rate on Chilo suppressalis (%) (Chilo suppressalis; 1 ppm): 100%
Fatality rate on Chilo suppressalis (%) (Chilo suppressalis; 10 ppm): 100%
pest or weed control at 0.1 ppm (Chilo suppressalis): > 80%
pest or weed control at 1 ppm (Chilo suppressalis): > 80%
pest or weed control at 10 ppm (Chilo suppressalis): > 80%
Fatality rate on Plutella xylostella (%) (Plutella xylostella; 0.1 ppm): 100%
Fatality rate on Plutella xylostella (%) (Plutella xylostella; 1 ppm): 100%
Fatality rate on Plutella xylostella (%) (Plutella xylostella; 10 ppm): 100%
pest or weed control at 0.1 ppm (Plutella xylostella): > 80%
pest or weed control at 1 ppm (Plutella xylostella): > 80%
pest or weed control at 10 ppm (Plutella xylostella): > 80%
pest or weed control at 1 ppm (Tetranychus cinnabarinus; 24 h): > 80%
pest or weed control at 10 ppm (Tetranychus cinnabarinus; 24 h): > 80%
pest or weed control at 25 ppm (Tetranychus cinnabarinus; 24 h): > 80%
pest or weed control at 0.1 ppm (Pieris rapae): > 80%
pest or weed control at 1 ppm (Pieris rapae): > 80%
pest or weed control at 10 ppm (Pieris rapae): > 80%
Fatality rate on Mythimna separata (%) (Mythimna separata; 0.1 ppm): 100%
Fatality rate on Mythimna separata (%) (Mythimna separata; 1 ppm): 100%
Fatality rate on Mythimna separata (%) (Mythimna separata; 10 ppm): 100%
pest or weed control at 0.1 ppm (Mythimna separata): > 80%
pest or weed control at 1 ppm (Mythimna separata): > 80%
pest or weed control at 10 ppm (Mythimna separata): > 80%
Fatality rate on Frankliniella occidentalis (%) ([1]; 1 ppm): 95%
Fatality rate on Frankliniella occidentalis (%) ([1]; 10 ppm): 100%
Fatality rate on Frankliniella occidentalis (%) ([1]; 25 ppm): 100%
pest or weed control at 1 ppm [1]: > 80%
pest or weed control at 10 ppm [1]: > 80%
pest or weed control at 25 ppm [1]: > 80%

Cc1cc(C2=NOC(c3cc(Cl)c(F)c(Cl)c3)(C(F)(F)F)C2)ccc1C(=O)NCc1ncccc1Cl (stereo not drawn) [Compound 13]
pest or weed control at 0.1 ppm (Cnaphalocrocis medinalis): > 80%
pest or weed control at 1 ppm (Cnaphalocrocis medinalis): > 80%
pest or weed control at 10 ppm (Cnaphalocrocis medinalis): > 80%
pest or weed control at 0.1 ppm (Spodoptera litura): > 80%
pest or weed control at 1 ppm (Spodoptera litura): > 80%
pest or weed control at 10 ppm (Spodoptera litura): > 80%
pest or weed control at 0.1 ppm (Chilo suppressalis): > 80%
pest or weed control at 1 ppm (Chilo suppressalis): > 80%
pest or weed control at 10 ppm (Chilo suppressalis): > 80%
pest or weed control at 0.1 ppm (Plutella xylostella): > 80%
pest or weed control at 1 ppm (Plutella xylostella): > 80%
pest or weed control at 10 ppm (Plutella xylostella): > 80%
pest or weed control at 1 ppm (Tetranychus cinnabarinus; 24 h): > 80%
pest or weed control at 10 ppm (Tetranychus cinnabarinus; 24 h): > 80%
pest or weed control at 25 ppm (Tetranychus cinnabarinus; 24 h): > 80%
pest or weed control at 0.1 ppm (Pieris rapae): > 80%
pest or weed control at 1 ppm (Pieris rapae): > 80%
pest or weed control at 10 ppm (Pieris rapae): > 80%
pest or weed control at 0.1 ppm (Mythimna separata): > 80%
pest or weed control at 1 ppm (Mythimna separata): > 80%
pest or weed control at 10 ppm (Mythimna separata): > 80%
pest or weed control at 1 ppm [1]: > 80%
pest or weed control at 10 ppm [1]: > 80%
pest or weed control at 25 ppm [1]: > 80%
